Where “and” joins values, the source holds several entries; their conditions need not be identical. Equal values may be shown once. Inconclusive results and toxic doses are left out. Cut-off read from the data, not from the text of the source: active = T/C of 150% or more; inactive = T/C below 125%.
System: L1210 leukemia ip in BDF1 mice, survival T/C
Assay: NCI In Vivo Anticancer Drug Screen. Data for tumor model L1210 Leukemia (intraperitoneal) in B6D2F1 (BDF1) mice
Conditions: higher = longer survival
How it was run: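 Transplantable tumor model; survival measured in treated vs vehicle control mice. Value = treated/control.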

[1] = endpoint: mean survival time, dose: 100.0 mg/kg/injection, schedule: Q04DX003 (ip), vehicle: Klucel (hydroxypropylcellulose) (HPC)
[2] = endpoint: mean survival time, dose: 200.0 mg/kg/injection, schedule: Q04DX003 (ip), vehicle: Klucel (hydroxypropylcellulose) (HPC)
[3] = endpoint: mean survival time, dose: 400.0 mg/kg/injection, schedule: Q04DX003 (ip), vehicle: Klucel (hydroxypropylcellulose) (HPC)
[4] = endpoint: mean survival time, dose: 25.0 mg/kg/injection, schedule: Q01DX001 (ip), vehicle: Klucel (hydroxypropylcellulose) (HPC)
[5] = endpoint: mean survival time, dose: 50.0 mg/kg/injection, schedule: Q01DX001 (ip), vehicle: Klucel (hydroxypropylcellulose) (HPC)
[6] = endpoint: mean survival time, dose: 100.0 mg/kg/injection, schedule: Q01DX009 (ip), vehicle: saline with Tween-80
[7] = endpoint: mean survival time, dose: 100.0 mg/kg/injection, schedule: Q04DX003 (ip), vehicle: saline with Tween-80
[8] = endpoint: mean survival time, dose: 200.0 mg/kg/injection, schedule: Q01DX009 (ip), vehicle: saline with Tween-80
[9] = endpoint: mean survival time, dose: 200.0 mg/kg/injection, schedule: Q04DX003 (ip), vehicle: saline with Tween-80
[10] = endpoint: mean survival time, dose: 400.0 mg/kg/injection, schedule: Q01DX009 (ip), vehicle: saline with Tween-80
[11] = endpoint: mean survival time, dose: 400.0 mg/kg/injection, schedule: Q04DX003 (ip), vehicle: saline with Tween-80
[12] = endpoint: mean survival time, dose: 100.0 mg/kg/injection, schedule: Q01DX001 (ip), vehicle: carboxymethylcellulose (CMC)
[13] = endpoint: mean survival time, dose: 200.0 mg/kg/injection, schedule: Q01DX001 (ip), vehicle: carboxymethylcellulose (CMC)
[14] = endpoint: mean survival time, dose: 100.0 mg/kg/injection, schedule: Q01DX009 (ip), vehicle: saline
[15] = endpoint: mean survival time, dose: 200.0 mg/kg/injection, schedule: Q01DX009 (ip), vehicle: saline
[16] = endpoint: mean survival time, dose: 400.0 mg/kg/injection, schedule: Q01DX009 (ip), vehicle: saline
[17] = endpoint: mean survival time, dose: 100.0 mg/kg/injection, schedule: Q01DX001 (ip), vehicle: saline
[18] = endpoint: mean survival time, dose: 200.0 mg/kg/injection, schedule: Q01DX001 (ip), vehicle: saline
[19] = endpoint: mean survival time, dose: 400.0 mg/kg/injection, schedule: Q01DX001 (ip), vehicle: saline

Measured: T/C

CC(C)=NC(=O)NO.[Cl][Mn][Cl]
inactive: endpoint: mean survival time, dose: 37.5 mg/kg/injection, schedule: Q01DX009 (ip), vehicle: saline 105 % of control | endpoint: mean survival time, dose: 75.0 mg/kg/injection, schedule: Q01DX001 (ip), vehicle: saline 91 % of control | endpoint: mean survival time, dose: 75.0 mg/kg/injection, schedule: Q01DX009 (ip), vehicle: saline 111 % of control | endpoint: mean survival time, dose: 150.0 mg/kg/injection, schedule: Q01DX001 (ip), vehicle: saline 104 % of control | endpoint: mean survival time, dose: 150.0 mg/kg/injection, schedule: Q01DX009 (ip), vehicle: saline 105 % of control

CCCCCCCCCCCCCCCCCC(=O)CS(C)=O (stereo not drawn)
inactive: [1] 94 % of control | [2] 91 % of control | [3] 96 % of control

CC(=C(C#N)C#N)c1ccc(Cl)cc1
inactive: endpoint: mean survival time, dose: 12.5 mg/kg/injection, schedule: Q01DX001 (ip), vehicle: Klucel (hydroxypropylcellulose) (HPC) 112 % of control | [4] 91 % of control | [5] 112 % of control | [1] 108 % of control

CCOc1ccc(/C=N/NC(=O)c2ccccc2NC(=O)C2CC2)cc1OC
inactive: [6] 100 % of control | [7] 92 % of control | [8] 92 % of control | [9] 95 % of control | [10] 94 % of control | [11] 90 % of control

COc1cc(I)cc(OC)c1OC
inactive: [7] 97 % of control | [9] 94 % of control | [11] 100 % of control

c1ccc2c(c1)cc1ncc3cccc4ccc2c1c43
inactive: [7] 88 % of control | [9] 102 % of control | [11] 88 % of control

COc1ccccc1OCC(C)=O
inactive: [6] 95 % of control | [8] 105 % of control | [10] 105 % of control

COC(=O)c1ccccc1N=NN(C)C
inactive: [12] 102 % of control | [13] 102 % of control | endpoint: median survival time, dose: 65.0 mg/kg/injection, schedule: Q01DX001 (ip), vehicle: steriod suspending solution 110 % of control | endpoint: median survival time, dose: 108.0 mg/kg/injection, schedule: Q01DX001 (ip), vehicle: steriod suspending solution 105 % of control | endpoint: median survival time, dose: 180.0 mg/kg/injection, schedule: Q01DX001 (ip), vehicle: steriod suspending solution 120 % of control | endpoint: median survival time, dose: 300.0 mg/kg/injection, schedule: Q01DX001 (ip), vehicle: steriod suspending solution 105 % of control

BrC1(Br)C2CC3C(CC21)C3(Br)Br (stereo not drawn)
inactive: endpoint: mean survival time, dose: 100.0 mg/kg/injection, schedule: Q01DX001 (ip), vehicle: saline sonified 98 % of control | endpoint: mean survival time, dose: 200.0 mg/kg/injection, schedule: Q01DX001 (ip), vehicle: saline sonified 96 % of control | endpoint: mean survival time, dose: 400.0 mg/kg/injection, schedule: Q01DX001 (ip), vehicle: saline sonified 98 % of control

CCOC(=O)c1ccc(NC(=O)Cn2cnc3c(=S)nc[nH]c32)cc1
inactive: [4] 92 % of control | [5] 106 % of control | endpoint: mean survival time, dose: 100.0 mg/kg/injection, schedule: Q01DX001 (ip), vehicle: Klucel (hydroxypropylcellulose) (HPC) 95 % of control

O=c1c(N=Nc2ccc(Br)cc2)c(O)n(-c2ccc(Cl)cc2)c(=S)n1-c1ccccc1
inactive: endpoint: mean survival time, dose: 37.5 mg/kg/injection, schedule: Q01DX001 (ip), vehicle: Klucel (hydroxypropylcellulose) (HPC) 107 % of control | endpoint: mean survival time, dose: 75.0 mg/kg/injection, schedule: Q01DX001 (ip), vehicle: Klucel (hydroxypropylcellulose) (HPC) 108 % of control | endpoint: mean survival time, dose: 150.0 mg/kg/injection, schedule: Q01DX001 (ip), vehicle: Klucel (hydroxypropylcellulose) (HPC) 104 % of control

C[N+]1(CCCl)CC[N+](C)(CCCl)CC1 (stereo not drawn)
inactive: [12] 101 % of control | endpoint: mean survival time, dose: 100.0 mg/kg/injection, schedule: Q01DX009 (ip), vehicle: carboxymethylcellulose (CMC) 97 % of control and 92 % of control | [14] 97 % of control | endpoint: mean survival time, dose: 100.0 mg/kg/injection, schedule: Q04DX002 (ip), vehicle: carboxymethylcellulose (CMC) 97 % of control | endpoint: mean survival time, dose: 100.0 mg/kg/injection, schedule: Q04DX002 (ip), vehicle: saline 112 % of control | endpoint: mean survival time, dose: 100.0 mg/kg/injection, schedule: Q04DX003 (ip), vehicle: carboxymethylcellulose (CMC) 97 % of control | [13] 105 % of control | endpoint: mean survival time, dose: 200.0 mg/kg/injection, schedule: Q01DX009 (ip), vehicle: carboxymethylcellulose (CMC) 97 % of control and 100 % of control | [15] 101 % of control | endpoint: mean survival time, dose: 200.0 mg/kg/injection, schedule: Q04DX002 (ip), vehicle: carboxymethylcellulose (CMC) 100 % of control and 103 % of control | endpoint: mean survival time, dose: 200.0 mg/kg/injection, schedule: Q04DX002 (ip), vehicle: saline 105 % of control | endpoint: mean survival time, dose: 200.0 mg/kg/injection, schedule: Q04DX003 (ip), vehicle: carboxymethylcellulose (CMC) 100 % of control | endpoint: mean survival time, dose: 400.0 mg/kg/injection, schedule: Q01DX001 (ip), vehicle: carboxymethylcellulose (CMC) 97 % of control | endpoint: mean survival time, dose: 400.0 mg/kg/injection, schedule: Q01DX009 (ip), vehicle: carboxymethylcellulose (CMC) 101 % of control and 91 % of control | [16] 101 % of control | endpoint: mean survival time, dose: 400.0 mg/kg/injection, schedule: Q04DX002 (ip), vehicle: carboxymethylcellulose (CMC) 93 % of control | endpoint: mean survival time, dose: 400.0 mg/kg/injection, schedule: Q04DX003 (ip), vehicle: carboxymethylcellulose (CMC) 103 % of control

O=C(/C(=N/N=C\c1ccc([N+](=O)[O-])cc1)c1ccccc1)c1ccccc1
inactive: [7] 96 % of control | [9] 96 % of control | [11] 94 % of control

CC12CC(c3ccoc3)OC(=O)C1CCC1(C)C2C2C=CC1(O)C(=O)O2 (stereo not drawn)
inactive: [17] 104 % of control | [18] 98 % of control | [19] 104 % of control

NC(=O)c1cc(NC(=O)c2ccc(C(=O)Nc3cc(C(N)=O)cc(C4=NCCN4)c3)cc2)cc(C2=NCCN2)c1
inactive: endpoint: mean survival time, dose: 4.0 mg/kg/injection, schedule: Q01DX015 (ip), vehicle: methylcellulose (MC) 103 % of control | endpoint: mean survival time, dose: 8.0 mg/kg/injection, schedule: Q01DX015 (ip), vehicle: methylcellulose (MC) 92 % of control | endpoint: mean survival time, dose: 16.0 mg/kg/injection, schedule: Q01DX015 (ip), vehicle: methylcellulose (MC) 105 % of control | endpoint: mean survival time, dose: 62.5 mg/kg/injection, schedule: Q01DX015 (ip), vehicle: methylcellulose (MC) 116 % of control | endpoint: mean survival time, dose: 125.0 mg/kg/injection, schedule: Q01DX015 (ip), vehicle: methylcellulose (MC) 117 % of control

CC1(C)Cc2cc3cc(Cl)ccc3nc2-c2ccccc21
inactive: [14] 102 % of control | endpoint: mean survival time, dose: 100.0 mg/kg/injection, schedule: Q04DX003 (ip), vehicle: acetone 98 % of control | [15] 89 % of control | endpoint: mean survival time, dose: 200.0 mg/kg/injection, schedule: Q04DX003 (ip), vehicle: acetone 104 % of control | [16] 100 % of control | endpoint: mean survival time, dose: 400.0 mg/kg/injection, schedule: Q04DX003 (ip), vehicle: acetone 94 % of control

CSc1nc2c(c(=O)[nH]1)C1C=C(C)CCC1C(C)(C)C2 (stereo not drawn)
inactive: endpoint: mean survival time, dose: 100.0 mg/kg/injection, schedule: Q04DX002 (ip), vehicle: Klucel (hydroxypropylcellulose) (HPC) 98 % of control | endpoint: mean survival time, dose: 200.0 mg/kg/injection, schedule: Q04DX002 (ip), vehicle: Klucel (hydroxypropylcellulose) (HPC) 96 % of control

COc1ccccc1NC(=O)Nc1c(C)cc(C)cc1C
inactive: [1] 95 % of control | endpoint: mean survival time, dose: 200.0 mg/kg/injection, schedule: Q01DX009 (ip), vehicle: Klucel (hydroxypropylcellulose) (HPC) 90 % of control | [2] 88 % of control | endpoint: mean survival time, dose: 400.0 mg/kg/injection, schedule: Q01DX009 (ip), vehicle: Klucel (hydroxypropylcellulose) (HPC) 95 % of control | [3] 91 % of control

CC(NP1(=O)OCC(C)(N)CO1)c1ccccc1 (stereo not drawn)
inactive: endpoint: mean survival time, dose: 50.0 mg/kg/injection, schedule: Q01DX001 (ip), vehicle: saline 108 % of control | [17] 102 % of control | [18] 106 % of control | [19] 93 % of control

CC(=O)OCC1OC(n2cnc3c(Cl)nc(Cl)nc32)CC1OC(C)=O (stereo not drawn)
inactive: [17] 101 % of control | [18] 101 % of control | [19] 101 % of control

O=C(N/N=C/c1cccc([N+](=O)[O-])c1)c1ccc(Cl)cc1
inactive: endpoint: mean survival time, dose: 50.0 mg/kg/injection, schedule: Q01DX009 (ip), vehicle: saline with Tween-80 96 % of control | [6] 89 % of control | [8] 89 % of control

Oc1cccc2oc(=S)[nH]c12
inactive: endpoint: mean survival time, dose: 25.0 mg/kg/injection, schedule: Q04DX003 (ip), vehicle: Klucel (hydroxypropylcellulose) (HPC) 106 % of control | endpoint: mean survival time, dose: 50.0 mg/kg/injection, schedule: Q04DX003 (ip), vehicle: Klucel (hydroxypropylcellulose) (HPC) 92 % of control | [1] 103 % of control | [7] 95 % of control and 100 % of control | [9] 110 % of control
